In ChEMBL document CHEMBL3885861, “Open TG-GATES”:

Species: Rattus norvegicus
Assay: Open TG-GATES - Regimen: Single
Type: toxicity, organism-based, Sprague-Dawley
Parameters: regimen Single, gender Male, age 6 weeks
Details: in vivo, po, 10 mg/kg, route gavage, dose level Middle; for APTT / Bas / Eos / Fbg / Hb / Ht / Lym / MCH / MCHC / MCV / Mono / Neu / PT / Plat / RBC / Ret / WBC: tissue Blood; for KIDNEY_L / KIDNEY_R / KIDNEY_TOTAL: tissue Kidney; for LIVER: tissue Liver; for A/G / ALP / ALT / AST / BUN / CRE / Ca / Cl / DBIL / GLC / IP / K / LDH / Na / PL / RALB / TBIL / TC / TG / TP / gamma-GTP: tissue Plasma

`C[C@H]1C(=O)O[C@@H]2CCN3CC=C(COC(=O)[C@](C)(O)[C@]1(C)O)[C@H]23` [MONOCROTALINE] showed a TERMINAL_BW (3 h) of 213.5 g, an APTT (3 h) of 19.4 s and a Bas (3 h) of 0%. It also gave an Eos (3 h) of 1.4%, a Fbg (3 h) of 303.6 mg/dL and a Hb (3 h) of 12.9 g/dL. The Ht (3 h) was 37.7%, the Lym (3 h) was 77.2% and the MCH (3 h) was 21.5 pg. The MCHC (3 h) was 34.2%, the MCV (3 h) was 62.9 fL and the Mono (3 h) was 2.2%. The Neu (3 h) was 19%, the PT (3 h) was 16.5 s and the Plat (3 h) was 122.4 x10_4/uL. For the same compound, the RBC (3 h) was 600.4 x10_4/ul, the Ret (3 h) was 8.6% and the WBC (3 h) was 80.3 x10_2/uL. It also gave a KIDNEY_L (3 h) of 1 g, a KIDNEY_R (3 h) of 0.9 g and a KIDNEY_TOTAL (3 h) of 1.9 g. For the same compound, the LIVER (3 h) was 9.8 g, the A/G (3 h) was 1.3 and the ALP (3 h) was 1633.4 IU/L. The ALT (3 h) was 44.4 IU/L, the AST (3 h) was 72.8 IU/L and the BUN (3 h) was 14.2 mg/dL. The CRE (3 h) was 0.1 mg/dL, the Ca (3 h) was 10.8 mg/dL and the Cl (3 h) was 105.6 meq/L. It also gave a DBIL (3 h) of 0.002 mg/dL, a GLC (3 h) of 171.8 mg/dL and an IP (3 h) of 8.9 mg/dL. The K (3 h) was 4.3 meq/L, the LDH (3 h) was 207.6 IU/L and the Na (3 h) was 142.6 meq/L. For the same compound, the PL (3 h) was 139 mg/dL, the RALB (3 h) was 3 g/dL and the TBIL (3 h) was 0.012 mg/dL. It also gave a TC (3 h) of 80 mg/dL, a TG (3 h) of 73.2 mg/dL and a TP (3 h) of 5.3 g/dL. It also gave a gamma-GTP (3 h) of 1 IU/L, a TERMINAL_BW (6 h) of 207.4 g and an APTT (6 h) of 21.7 s. For the same compound, the Bas (6 h) was 0%, the Eos (6 h) was 1.2% and the Fbg (6 h) was 303.2 mg/dL. It also gave a Hb (6 h) of 13.2 g/dL, a Ht (6 h) of 38.9% and a Lym (6 h) of 72.4%. For the same compound, the MCH (6 h) was 20.9 pg, the MCHC (6 h) was 34% and the MCV (6 h) was 61.6 fL. It also gave a Mono (6 h) of 3.2%, a Neu (6 h) of 22% and a PT (6 h) of 16.3 s. It also gave a Plat (6 h) of 121.5 x10_4/uL, an RBC (6 h) of 632 x10_4/ul and a Ret (6 h) of 8.4%. The WBC (6 h) was 93.8 x10_2/uL, the KIDNEY_L (6 h) was 1 g and the KIDNEY_R (6 h) was 1 g. For the same compound, the KIDNEY_TOTAL (6 h) was 1.9 g, the LIVER (6 h) was 9.1 g and the A/G (6 h) was 1.3. The ALP (6 h) was 1403 IU/L, the ALT (6 h) was 36.6 IU/L and the AST (6 h) was 70.8 IU/L. The BUN (6 h) was 11.2 mg/dL, the CRE (6 h) was 0.1 mg/dL and the Ca (6 h) was 10.5 mg/dL. The Cl (6 h) was 107 meq/L, the DBIL (6 h) was 0.004 mg/dL and the GLC (6 h) was 179.6 mg/dL. The IP (6 h) was 9.5 mg/dL, the K (6 h) was 4.3 meq/L and the LDH (6 h) was 222.6 IU/L. The Na (6 h) was 141.8 meq/L, the PL (6 h) was 129 mg/dL and the RALB (6 h) was 3 g/dL. The TBIL (6 h) was 0.016 mg/dL, the TC (6 h) was 72.2 mg/dL and the TG (6 h) was 53.2 mg/dL. For the same compound, the TP (6 h) was 5.3 g/dL, the gamma-GTP (6 h) was 1 IU/L and the TERMINAL_BW (9 h) was 203.7 g. The APTT (9 h) was 20 s, the Bas (9 h) was 0% and the Eos (9 h) was 1%. The Fbg (9 h) was 294.4 mg/dL, the Hb (9 h) was 13.1 g/dL and the Ht (9 h) was 38.6%. It also gave a Lym (9 h) of 75.4%, an MCH (9 h) of 21 pg and an MCHC (9 h) of 34.1%. For the same compound, the MCV (9 h) was 61.7 fL, the Mono (9 h) was 2.8% and the Neu (9 h) was 20.2%. It also gave a PT (9 h) of 16.5 s, a Plat (9 h) of 119.6 x10_4/uL and an RBC (9 h) of 626 x10_4/ul. For the same compound, the Ret (9 h) was 8.8%, the WBC (9 h) was 71.7 x10_2/uL and the KIDNEY_L (9 h) was 1 g. For the same compound, the KIDNEY_R (9 h) was 1 g, the KIDNEY_TOTAL (9 h) was 2 g and the LIVER (9 h) was 9 g. For the same compound, the A/G (9 h) was 1.3, the ALP (9 h) was 1365.4 IU/L and the ALT (9 h) was 33.6 IU/L. The AST (9 h) was 62.8 IU/L, the BUN (9 h) was 11.4 mg/dL and the CRE (9 h) was 0.1 mg/dL. It also gave a Ca (9 h) of 10.6 mg/dL, a Cl (9 h) of 106.2 meq/L and a DBIL (9 h) of 0.006 mg/dL. It also gave a GLC (9 h) of 180.2 mg/dL, an IP (9 h) of 9.7 mg/dL and a K (9 h) of 4.2 meq/L. It also gave an LDH (9 h) of 144 IU/L, a Na (9 h) of 142.2 meq/L and a PL (9 h) of 132.8 mg/dL. The RALB (9 h) was 3.1 g/dL, the TBIL (9 h) was 0.024 mg/dL and the TC (9 h) was 73.2 mg/dL. The TG (9 h) was 54.8 mg/dL, the TP (9 h) was 5.4 g/dL and the gamma-GTP (9 h) was 1.2 IU/L. For the same compound, the TERMINAL_BW (24 h) was 217 g, the APTT (24 h) was 21.3 s and the Bas (24 h) was 0%. For the same compound, the Eos (24 h) was 0.8%, the Fbg (24 h) was 309.8 mg/dL and the Hb (24 h) was 13.5 g/dL. The Ht (24 h) was 39.6%, the Lym (24 h) was 80.8% and the MCH (24 h) was 21.1 pg. For the same compound, the MCHC (24 h) was 34%, the MCV (24 h) was 61.9 fL and the Mono (24 h) was 2.8%. It also gave a Neu (24 h) of 15.2%, a PT (24 h) of 16.2 s and a Plat (24 h) of 117.4 x10_4/uL. The RBC (24 h) was 639.8 x10_4/ul, the Ret (24 h) was 7.1% and the WBC (24 h) was 75.2 x10_2/uL. The KIDNEY_L (24 h) was 1 g, the KIDNEY_R (24 h) was 1 g and the KIDNEY_TOTAL (24 h) was 2 g. It also gave an LIVER (24 h) of 10 g, an A/G (24 h) of 1.3 and an ALP (24 h) of 1872.8 IU/L. The ALT (24 h) was 45.2 IU/L, the AST (24 h) was 75.4 IU/L and the BUN (24 h) was 17 mg/dL. The CRE (24 h) was 0.1 mg/dL, the Ca (24 h) was 10.4 mg/dL and the Cl (24 h) was 106.6 meq/L. It also gave a DBIL (24 h) of 0.002 mg/dL, a GLC (24 h) of 180.8 mg/dL and an IP (24 h) of 6.9 mg/dL. For the same compound, the K (24 h) was 4.3 meq/L, the LDH (24 h) was 235.8 IU/L and the Na (24 h) was 142.2 meq/L. For the same compound, the PL (24 h) was 153 mg/dL, the RALB (24 h) was 3.1 g/dL and the TBIL (24 h) was 0.006 mg/dL. The TC (24 h) was 79.4 mg/dL, the TG (24 h) was 114.6 mg/dL and the TP (24 h) was 5.5 g/dL. It also gave a gamma-GTP (24 h) of 0.8 IU/L.
